Experimental data: patent US20220378854A1, “COMPOSITION FOR PREVENTING, TREATING, OR IMPROVING GASTROINTESTINAL DISEASES COMPRISING STRAIN OF GENUS CORYNEBACTERIUM AND CULTURE THEREOF” (CJ CheilJedang Corporation, priority 2019, published 2022)

Experiments:
WIRS rats [1] = assay: WIRS rat model, stomach observed by naked eyes (gastrorrhagia); assay type: in vivo; conditions: oral, 8 hours before WIRS; same threonine 0.15% by weight/diet; WIRS 6 hours
Procedure: (§1) 110 SD rats in total were purchased from Charles River (Osaka, Japan) and stored in an animal facility. The experimental animals were handled in the authorized animal facility according to AAALAC International Animal Care Policies. The animals were fasted 24 hours prior to be exposed to WIRS, and water was freely available. 10 rats of each group were placed in a cage for WIRS and immersed in water for 6 hours.
Sample 1 to Sample 5 prepared in Example 8 were orally administered to rats 8 hours before WIRS treatment, so that the same amount of threonine was administered (0.15% by weight/diet), and after applying WIRS for 6 hours, the animals were sacrificed and the stomach was extracted and incised and contents were removed, and a picture of the inner surface of the stomach was taken and this was shown in FIG. 11.

WIRS rats [2] = assay: SRMD improving efficacy in WIRS rats (gross lesion index, pathologic scores); assay type: in vivo, rat; conditions: oral 8 hours before WIRS; L-Thr 0.15% by weight/diet; WIRS 6 hours
Procedure: as §1
(§2) They were divided into a untreated group in which nothing was treated after oral administration of saline solution ([…], animal experimental group 1), WIRS Group in which WIRS was applied for 6 hours ([…], animal experimental group 2), and animal experimental groups in which feed containing Sample 1 (prepared in Example 8) of 0.15% by weight (animal experimental group 3) and feed containing Sample 3 (prepared in Example 8) of 0.21% by weight (animal experimental group 4) were orally treated by 30 mg/kg body, respectively, 8 hours before WIRS treatment. The content of L-Thr (L-threonine) in the feed of the animal experimental groups 3 and 4 was set to 0.15% by weight/diet equally.
All experimental animals (rat) were sacrificed with a high dose of anesthetic (thiopental sodium, 50 mg/kg) after 6 hours of WIRS. The animal experimental groups 1-4 disclosed in the following Examples 10 to 12 mean the animal experimental groups 1-4 of the Table 5, and in FIG. 7a to FIG. 10, Groups 1-4 mean the animal experimental groups 1-4 of Table 5.
The stomach of the rat sacrificed in Example 9 was incised and opened along the larger curvature, and then washed with cold PBS solution. After determining the number and size of erosions or ulcers by enlarged photographs, the half was anatomized for anatomical observation. The incised stomach was spread over plastic sheet and fixed in 10% buffer formalin for 4 hours and used for production of a paraffin tissue slide, and the other half was stored in a liquid nitrogen tank for molecular biological observation. In addition, the mucosal homogenate was stored by mixing the same animal experimental groups.
The stomach sample was observed using […] naked eyes (FIG. 7a), and in the control group and each experimental group (animal experimental groups 1-4), gross lesion index, inflammation; pathologic score, ulcer/erosion; pathologic score, regeneration; pathologic score were calculated and shown in FIG. 7b.

WIRS rats [3] = assay: mRNA expression of inflammation mediators and PDGF in WIRS rats; assay type: in vivo, rat; conditions: oral 8 hours before WIRS; L-Thr 0.15% by weight/diet; WIRS 6 hours
Procedure: as §2
Since SRMD was physiologically related to ischemic-reperfusion damage, in the animal experimental groups 1 to 4, mRNA expression of angiogenesis growth factors including PDGF (platelet-derived growth factor) and mRNA expression of inflammation mediators, iNOS, TNF-α, IFN-γ, and PDGF were measured, and the result was shown in FIG. 8a and FIG. 8b.
Specifically, the total RNA was extracted using RNeasy Mini kit (Qiagen Korea, Seoul, Korea). Amplification was analyzed using 10× reaction buffer (Promega Korea, Seoul, Korea), 1.5 mM/L MgCl2, […] deoxynucleotide triphosphate (dNTP), each primer […], and Taq DNA polymerase (Promega) 2.5 unit, using Perkin-Elmer GeneAmp PCR System 2400. Each cycle was composed of denaturation at 95° C. for 1 minute, annealing at 55° C. for […], and amplification at 72° C. for 45 seconds.

WIRS rats [4] = assay: p-IκBα, p-ERK, p-JNK protein level in gastric mucosa of WIRS rats (western blot); assay type: in vivo, rat; conditions: oral 8 hours before WIRS, WIRS 6 hours
Procedure: as §2
(§3) In addition, in each of the animal experimental groups 1-4, the protein level of p-IκBα, p-ERK, and p-JNK was measured and shown in FIG. 8c and FIG. 8d. Specifically, to perform western blot for measuring the protein level, the collected gastric mucosa was homogenized in ice-cold 20 mM Tris-HCl buffer (pH 7.5) containing 2 mM EDTA (ethylenediaminetetraacetic acid), 0.5 mM EGTA (ethylene glycol tetraacetic acid), 300 mM sucrose, and 2 mM PMSF (phenylmethylsulfonyl fluoride) with a tissue homogenator. […] The immune complex was detected using ECL detection kit (Amersham Biosciences Korea, Seoul, Korea) and X-ray film was automatically irradiated. […]

WIRS rats [5] = assay: apoptosis on the gastric mucosa of WIRS rats (TUNEL, apoptotic index); assay type: in vivo, rat; conditions: oral 8 hours before WIRS; WIRS 6 hours
Procedure: as §2
Specifically, apoptosis was visualized using TdT FragEL DNA fragmentation detection kit (Oncogene Research Products, Cambridge, Mass.) and TUNEL (Terminal deoxynucleotidyl transferase-mediated nick end labeling) method. To measure AI (apoptotic index) by finding a region in which apoptosis occurs in a large quantity (apoptotic hot spot) in each experimental group, TUNEL-immunostained section (terminal deoxynucleotidyl transferase mediated dUTP nick-end labeling (TUNEL)-immunostained section) was enlarged 100 folds and scanned. Then, the number of TUNEL-positive cells was counted in 400 fields to record AI. […]

WIRS rats [6] = assay: apoptosis proteins in WIRS rats (western blot); assay type: in vivo, rat; conditions: oral 8 hours before WIRS; WIRS 6 hours
Procedure: as §2
In addition, in each of the animal experimental groups 1-4, the protein level of p-IκBα, p-ERK, and p-JNK was measured and shown in FIG. 8c and FIG. 8d. Specifically, to perform western blot for measuring the protein level, the collected gastric mucosa was homogenized in ice-cold 20 mM Tris-HCl buffer (pH 7.5) containing 2 mM EDTA (ethylenediaminetetraacetic acid), 0.5 mM EGTA (ethylene glycol tetraacetic acid), 300 mM sucrose, and 2 mM PMSF (phenylmethylsulfonyl fluoride) with a tissue homogenator. After electrophoresis of protein of 30 μg in 8% SDS-PAGE (sodium dodecyl sulfate-polyacrylamide gel electrophoresis) gel, it was transferred to PVDF (polyvinylidene fluoride) membrane using a semidry transfer system (Hoefer, Holliston, Mass., USA). Non-specific binding was blocked by incubation with 5% non-fat dry milk. The membrane was thermostatically incubated with a 500-fold diluted solution of a primary antibody at 4° C. overnight, and then incubated with an HRP (horseradish peroxidase) binding-secondary antibody diluted by 1:1000. The immune complex was detected using ECL detection kit (Amersham Biosciences Korea, Seoul, Korea) and X-ray film was automatically irradiated. Antibodies used for western blot were as follows. β-actin, iNOS (nitric oxide synthase), COX-2 (cyclooxygenase), P-JNK (phosphor-JNK), P-ERK (phosphor-ERK), Bcl-2 (B-cell lymphoma 2), Bax (B-cell lymphoma-2-associated X-protein), and cyclin D1 antibodies were purchased from Santa Cruz Biotechnology (Santa Cruz, Calif.). p-IκBα (phosphorylated inhibitor of kappa B alpha), p-STAT3 (phosphorylated signal transducer and activator of transcription 3), PARP (poly(ADP-ribose) polymerase), CDK4 (cyclin-dependent kinase 4), and CDK2 (cyclin dependent kinase 2) were purchased from Cell Signaling Technology (Beverly, Mass.). HO-1 (A heme oxygenase-1) antibody was purchased from Enzo life Sciences (Farmingdale, N.Y.). […]

WIRS rats [7] = assay: CDK4 and Cyclin D1 protein in WIRS rats; assay type: in vivo, rat; conditions: oral 8 hours before WIRS; WIRS 6 hours
Procedure: as §2, §3

WIRS rats [8] = assay: mucin content in stomach tissue of WIRS rats by PAS staining; assay type: in vivo, rat; conditions: oral 8 hours before WIRS, WIRS 6 hours
Procedure: as §2
In the stomach tissue of the animal experimental groups 1 to 4, the mucin content was confirmed by PAS staining, and the result was shown in FIG. 10.

C[C@@H](O)[C@H](N)C(=O)O [Sample 1, threonine]
degree of gastrorrhagia reduced (therapeutic effect of gastric ulcer), rank order (WIRS rats [1]): Sample 1<Sample 5<Sample 4<Sample 3 or Sample 2 | SRMD (erosions, hemorrhage, ulcers), stomach observation (WIRS rats [2]): significantly improved | gross lesion index (WIRS rats [2]): significantly (p<0.05) improved | inflammation; pathologic score (WIRS rats [2]): significantly (p<0.05) improved | regeneration; pathologic score (WIRS rats [2]): significantly (p<0.05) improved | ulcer/erosion; pathologic score (WIRS rats [2]): significantly (p<0.05) improved | IFN-γ mRNA expression (WIRS rats [3]): significantly reduced | PDGF mRNA expression (WIRS rats [3]): significantly reduced | TNF-α mRNA expression (WIRS rats [3]): significantly reduced | iNOS mRNA expression (WIRS rats [3]): significantly reduced | p-ERK activation (signaling) (WIRS rats [4]): partially inactivated | p-JNK activation (signaling) (WIRS rats [4]): partially inactivated | apoptosis level on the gastric mucosa (TUNEL) (WIRS rats [5]): significantly reduced | Bax expression (WIRS rats [6]): significantly reduced | PARP division (WIRS rats [6]): significantly reduced | cleaved caspase-3 expression (WIRS rats [6]): significantly reduced | cleaved caspase-8 expression (WIRS rats [6]): significantly reduced | expression of CDK4 (WIRS rats [7]): significantly reduced | expression of Cyclin D1 (WIRS rats [7]): significantly reduced | gastric mucin / mucus expression (PAS staining) (WIRS rats [8]): significantly preserved
